The structures appear in SMILES notation.

The values below come from patent publication US20070048250A1, “Methods of treating concomitant constipation in a cancer treatment regimen including imexon” (AmpliMed Corporation, priority 2005, published 2007).

The data set has as its system gastrointestinal transit of a charcoal meal. In words: GLP study, gastrointestinal transit of a charcoal meal in rats. The data set is classed as in vivo. The settings on record: intravenous, 100 mg/kg. The source says:
Following the unexpected identification of constipation toxicities in patients being treated with imexon in a cancer treatment regimen, a GLP (good laboratory practices) study was undertaken to evaluate the effects of imexon on the gastrointestinal transit of a charcoal meal in rats.

For the compound `N=C1NC(=O)N2CC12` (centres unmarked) [imexon, 4-imino-1,3-diazabicyclo[3.1.0]-hexan-2-one], the “effect on gastric emptying” value is given as “reduction in gastric emptying” and the “effect on gastrointestinal transit” value is on record as “statistically significant inhibition of gastrointestinal transit”.
